Active and inactive are the calls of the source.
Columns and labels:
P388/ADR = assay: cells; format: functional; conditions: Mus musculus
SN12K1 = assay: cells; format: functional; conditions: Homo sapiens
P388 = assay: cells; format: functional; conditions: Mus musculus
[1] = A cytotoxicity screen of small molecule inhibitors of the PhoP region in Salmonella typhi identified in the primary screen. [Related pubchem assays: 1850, 1864, 1985 ]; format: functional
Leucine aminopeptidase = molecular target: T1, Leucine aminopeptidase (Plasmodium falciparum 3D7, UniProt Q8IL11); assay: P. falciparum M17LAP inhibitors, primary screen, biochemical, fluorogenic H-Leu-NHMec substrate, 1536-well (AID 1619); format: functional
T1 sequence (Q8IL11 whole entry): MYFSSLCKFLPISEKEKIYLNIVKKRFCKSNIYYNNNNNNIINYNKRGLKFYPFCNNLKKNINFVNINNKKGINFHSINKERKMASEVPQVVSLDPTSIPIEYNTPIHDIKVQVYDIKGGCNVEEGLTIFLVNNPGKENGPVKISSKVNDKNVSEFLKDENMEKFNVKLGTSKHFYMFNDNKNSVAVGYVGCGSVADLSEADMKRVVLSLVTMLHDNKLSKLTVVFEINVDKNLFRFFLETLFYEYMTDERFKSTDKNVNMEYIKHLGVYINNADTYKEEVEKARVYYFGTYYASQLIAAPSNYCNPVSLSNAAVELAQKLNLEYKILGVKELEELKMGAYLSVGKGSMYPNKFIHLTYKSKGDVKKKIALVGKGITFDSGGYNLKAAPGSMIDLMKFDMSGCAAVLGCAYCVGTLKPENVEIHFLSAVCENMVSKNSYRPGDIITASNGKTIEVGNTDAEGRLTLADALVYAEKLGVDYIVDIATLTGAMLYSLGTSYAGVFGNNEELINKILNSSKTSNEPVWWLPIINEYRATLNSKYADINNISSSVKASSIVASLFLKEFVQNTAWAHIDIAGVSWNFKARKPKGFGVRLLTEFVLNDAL

[2] = system: Streptococcus sp. 'group A'; assay: growth inhibition of control SK(-) GAS strain, dose response, counter-screen for streptokinase expression inhibitor project, luminescence, kanamycin, BacTiterGlo, confirmation (AID 1900); format: functional, organism-based
Streptococcus = assay: Group A Streptococcus viability loss, dose response, counter-screen for streptokinase expression inhibitor project, luminescence, BacTiterGlo (AID 1915); format: functional, organism-based;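 further: potency for reduction of bacterial viability or growth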
[3] = molecular target: T2, Carboxy-terminal domain RNA polymerase II polypeptide A small phosphatase 1 (Homo sapiens, UniProt Q9GZU7); assay: inhibitors of CTDSP1, concentration-response testing, biochemical assay, absorbance-based, actives from ultra-high-throughput screening (AID 540297); format: functional
T2 sequence (Q9GZU7 whole entry): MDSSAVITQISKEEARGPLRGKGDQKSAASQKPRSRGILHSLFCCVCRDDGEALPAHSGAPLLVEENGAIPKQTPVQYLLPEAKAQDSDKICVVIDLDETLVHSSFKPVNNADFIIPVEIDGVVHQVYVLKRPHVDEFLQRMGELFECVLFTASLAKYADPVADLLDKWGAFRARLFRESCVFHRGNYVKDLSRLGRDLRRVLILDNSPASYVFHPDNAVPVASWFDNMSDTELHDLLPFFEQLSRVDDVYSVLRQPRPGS

[4] = microbe, parasite or virus in culture; format: functional; conditions: Mycobacterium tuberculosis
Prothrombin = Prothrombin (Homo sapiens, UniProt P00734); assay: Thrombin 1536 HTS Dose Response Confirmation. [Related pubchem assays: 1046 (Thrombin 1536 HTS; hits were confirmed in this assay)]; format: functional
[5] = molecular target: T3, RNA-binding protein pos-1 (Caenorhabditis elegans, UniProt G5EF15); assay: inhibitors of POS-1/mex-3 RNA binding, dose response, biochemical, fluorescence polarization (AID 1964);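 further: purified POS-1 fused to maltose binding protein made in E. coli; potency of compounds blocking POS-1 binding to fluorescent RNA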
T3 sequence (G5EF15 whole entry): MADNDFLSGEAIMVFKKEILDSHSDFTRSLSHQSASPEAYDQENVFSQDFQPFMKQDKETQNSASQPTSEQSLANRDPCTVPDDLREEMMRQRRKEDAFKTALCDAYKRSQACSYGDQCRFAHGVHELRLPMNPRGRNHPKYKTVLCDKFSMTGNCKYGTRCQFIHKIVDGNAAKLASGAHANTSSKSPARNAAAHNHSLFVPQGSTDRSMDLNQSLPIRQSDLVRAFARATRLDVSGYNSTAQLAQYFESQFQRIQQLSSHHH

[6] = molecular target: T4, Zinc finger protein mex-5 (Caenorhabditis elegans, UniProt Q9XUB2); assay: MEX-5/TCR-2 RNA interaction inhibitors, dose response, biochemical, C. elegans, fluorescence polarization (AID 1960)
T4 sequence (Q9XUB2 whole entry): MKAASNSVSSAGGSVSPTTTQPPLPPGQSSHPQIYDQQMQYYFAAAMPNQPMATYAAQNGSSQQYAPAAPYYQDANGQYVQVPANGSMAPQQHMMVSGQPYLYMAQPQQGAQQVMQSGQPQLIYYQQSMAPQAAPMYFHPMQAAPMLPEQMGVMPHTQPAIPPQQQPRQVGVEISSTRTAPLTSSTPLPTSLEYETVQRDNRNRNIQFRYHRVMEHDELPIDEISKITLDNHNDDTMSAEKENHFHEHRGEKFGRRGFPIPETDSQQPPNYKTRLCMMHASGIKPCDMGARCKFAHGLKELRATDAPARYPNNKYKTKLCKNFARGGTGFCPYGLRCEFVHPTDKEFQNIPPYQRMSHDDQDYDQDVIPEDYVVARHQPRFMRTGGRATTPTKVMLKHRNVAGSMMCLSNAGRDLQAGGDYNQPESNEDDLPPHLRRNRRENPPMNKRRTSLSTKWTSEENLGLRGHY

Protein skinhead-1 = molecular target: T5, Protein skinhead-1 (Caenorhabditis elegans, UniProt P34707); format: functional
T5 sequence (P34707 whole entry): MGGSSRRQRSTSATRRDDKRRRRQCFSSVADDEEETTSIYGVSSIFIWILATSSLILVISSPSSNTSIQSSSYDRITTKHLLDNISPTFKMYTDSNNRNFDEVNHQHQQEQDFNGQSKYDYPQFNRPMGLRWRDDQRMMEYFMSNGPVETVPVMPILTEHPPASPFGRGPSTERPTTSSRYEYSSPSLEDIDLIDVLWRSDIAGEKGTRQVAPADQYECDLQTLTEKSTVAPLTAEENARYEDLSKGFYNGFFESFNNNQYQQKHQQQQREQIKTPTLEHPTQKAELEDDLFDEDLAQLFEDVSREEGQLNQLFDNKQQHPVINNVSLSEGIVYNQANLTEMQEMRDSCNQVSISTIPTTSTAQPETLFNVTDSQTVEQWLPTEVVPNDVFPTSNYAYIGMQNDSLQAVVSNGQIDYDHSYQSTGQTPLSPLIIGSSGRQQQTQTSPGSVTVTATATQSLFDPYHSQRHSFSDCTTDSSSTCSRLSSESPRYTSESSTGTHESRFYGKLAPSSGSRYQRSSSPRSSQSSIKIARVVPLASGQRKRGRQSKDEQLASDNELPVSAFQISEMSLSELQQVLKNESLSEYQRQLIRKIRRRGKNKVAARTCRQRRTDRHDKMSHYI

Structure (SMILES): Nc1ccc2cc(S(=O)(=O)O)cc(O)c2c1/N=N/c1ccc(NC(=O)Nc2ccc(/N=N/c3c(N)ccc4cc(S(=O)(=O)O)cc(O)c34)c(S(=O)(=O)O)c2)cc1S(=O)(=O)O
- GI50 (P388/ADR): 95.5 µM (inactive)
- GI50 (SN12K1): > 100 µM (inactive)
- GI50 (P388): 45.2 µM (inactive)

Structure (SMILES): CC(NCc1ccc(Cl)cc1)C(O)c1ccccc1 (stereo not given)
- EC50 [1]: > 50 µM (active)

Structure (SMILES): Cc1nnc(SCC2=C(C(=O)O)N3C(=O)C(NC(=O)Cn4nc(C(F)F)c(Cl)c4C)C3SC2)s1 (stereo not given)
- IC50 (Leucine aminopeptidase): 13.9 µM (active)
- EC50 [2]: < 0.06 µM (active)
- EC50 (Streptococcus): 0.228 µM (active)

Structure (SMILES): O=C(CSc1nc(O)cc(-c2ccccc2)n1)Nc1ccccn1
- IC50 (Leucine aminopeptidase): 8.69 µM (active)

Structure (SMILES): NC(=NOC(=O)c1cccc([N+](=O)[O-])c1)c1cccc([N+](=O)[O-])c1
- IC50 [3]: 11.2 µM (active)

Structure (SMILES): CCc1c(O)cc(=O)n(-c2ccccc2)c1-c1ccccc1
- IC50 (Leucine aminopeptidase): 23.5 µM (active)

Structure (SMILES): O=C(CCn1c(=O)c2cccn2c2cccnc21)N1CCN(c2cccc(Cl)c2)CC1
- CC50 [4]: > 40 µM (active)

Structure (SMILES): CSc1ccc(/C=C(\C(=O)O)c2ccc(S(=O)(=O)N3CCCC3)s2)cc1
- IC50 [3]: 5.2 µM (active)

Structure (SMILES): C[N@+]12CC[C@H](CC1)C(=C(c1ccccc1)c1ccccc1)C2
- IC50 [3]: 3.04 µM (active)

Structure (SMILES): CC(=O)OCC1(C)CN(c2ccccc2)N(C(=O)c2ccc(C(C)(C)C)cc2)C1=O (stereo not given)
- IC50 (Prothrombin): 18 µM (active)

Structure (SMILES): Cc1cccc(-n2ccnc2CN2CCN(C3CCCC3)C(CCO)C2)c1 (stereo not given)
- EC50 [1]: > 50 µM (active)

Structure (SMILES): C=CCn1c(SCC(=O)NCc2ccc3c(c2)OCO3)nnc1C1COc2ccccc2O1 (stereo not given)
- IC50 (Leucine aminopeptidase): < 1 µM (active)

Structure (SMILES): COc1cc(S(=O)(=O)N2CCOCC2)ccc1NC(=O)COC(=O)c1ccccn1
- IC50 (Prothrombin): 0.545 µM (active)

Structure (SMILES): N=c1c(C(=O)NC2CCCCC2)cc2c(=O)n3ccccc3nc2n1Cc1ccc(F)cc1
- EC50 [5]: > 300 µM (not active)
- EC50 [6]: 13.3 µM (active)
- CC50 [4]: > 40 µM (active)

Structure (SMILES): N=C(NOC(=O)COc1ccc2ccccc2c1)c1ccccn1
- EC50 [1]: > 50 µM (active)

Structure (SMILES): CCOC(=O)CSC1=N/C(=C/c2ccc(-n3cncn3)cc2)C(=O)N1C(C)=O
- IC50 (Prothrombin): 0.942 µM (active)

Structure (SMILES): COC(=O)c1ccc(NC(S)=NNC(=O)c2ccccc2)cc1
- EC50 [1]: > 50 µM (active)

Structure (SMILES): Brc1ccc(Oc2nnnn2-c2ccccc2)cc1
- IC50 (Protein skinhead-1): 35.1 µM (active)

Structure (SMILES): Cc1cc(NC(=O)Cc2ccsc2)ccc1Br
- IC50 (Protein skinhead-1): > 100 µM (inactive)
